Measured values from the CheMixHub viscosity set.

Experiment: xn = mol fraction of the nth substance listed
Conditions: 101 kPa

[Cl-].[Cl-].[Cl-].[Cl-].[Ge+4] + CCOC(C)=O
viscosity [mPa·s]
Conditions | x2 = 0.1475 | x2 = 0.3162 | x2 = 0.5235 | x2 = 0.6703 | x2 = 0.8062
293.15 K | 0.576 | 0.535 | 0.5 | 0.481 | 0.469
303.15 K | 0.531 | 0.486 | 0.457 | 0.431 | 0.416
313.15 K | 0.481 | 0.449 | 0.406 | 0.39 | 0.382

[Cl-].[Cl-].[Cl-].[Cl-].[Ge+4] + CCOCC
293.15 K
Conditions | viscosity [mPa·s]
x2 = 0.2064 | 0.5
x2 = 0.4027 | 0.415
x2 = 0.5137 | 0.376
x2 = 0.6832 | 0.309
x2 = 0.7964 | 0.279

CCCCCCCCN + CCOCCO
308.15 K
Conditions | viscosity [mPa·s]
x2 = 0.1595 | 1.136
x2 = 0.4226 | 1.512
x2 = 0.5324 | 1.655
x2 = 0.6307 | 1.75
x2 = 0.7193 | 1.725
x2 = 0.7994 | 1.654
x2 = 0.8723 | 1.568
x2 = 0.9389 | 1.497

O=Cc1ccccc1 + CCc1ccccc1
viscosity [mPa·s]
Conditions | x1 = 0.1197 | x1 = 0.2343 | x1 = 0.3441 | x1 = 0.4494 | x1 = 0.5504 | x1 = 0.6474 | x1 = 0.7407 | x1 = 0.8304 | x1 = 0.9168
303.15 K | 0.6517 | 0.704 | 0.7588 | 0.8174 | 0.882 | 0.9577 | 1.043 | 1.13 | 1.203
308.15 K | 0.6199 | 0.6713 | 0.7283 | 0.7882 | 0.8554 | 0.93 | 1.014 | 1.102 | 1.181
313.15 K | 0.584 | 0.6318 | 0.691 | 0.7573 | 0.8273 | 0.9007 | 0.9837 | 1.07 | 1.158

CC(O)C(C)O (stereo not given) + CN1CCCC1=O
308.15 K
Conditions | viscosity [mPa·s]
x1 = 0.0282 | 1.924
x1 = 0.0534 | 2.003
x1 = 0.1001 | 2.405
x1 = 0.1968 | 2.91
x1 = 0.295 | 3.344
x1 = 0.3939 | 4.159
x1 = 0.4746 | 5.033
x1 = 0.5881 | 7.256
x1 = 0.6924 | 8.758
x1 = 0.7916 | 13.58
x1 = 0.8948 | 23.29
x1 = 0.9431 | 32.45
x1 = 0.973 | 39.91

CC(O)C(C)O (stereo not given) + CN(C)C=O
308.15 K
Conditions | viscosity [mPa·s]
x1 = 0.0509 | 0.724
x1 = 0.1003 | 0.859
x1 = 0.1898 | 1.033
x1 = 0.2855 | 1.36
x1 = 0.3729 | 1.788
x1 = 0.4785 | 2.544
x1 = 0.5949 | 5.332
x1 = 0.6808 | 8.504
x1 = 0.7219 | 10.79
x1 = 0.8883 | 24.97
x1 = 0.942 | 34.78

C[N+](C)(C)CCO.[Cl-] + CN(CCO)CCO
viscosity [mPa·s]
Conditions | x1 = 0.091 | x1 = 0.111 | x1 = 0.143
293.15 K | 54.54 | 126.3 | 139.8
313.15 K | 20.45 | 40.89 | 46.55
